The values that follow come from ChEMBL document CHEMBL1122997, “Conjugates of catecholamines. 5. Synthesis and beta-adrenergic activity of N-(aminoalkyl)norepinephrine derivatives” (J Med Chem, 1985).

The assay concerns the target Beta-adrenergic receptor (Mus musculus, UniProt P34971+P18762+P25962). Put plainly: Effective concentration against 125I]iodocyanopindolol(ICYP) binding to beta adrenergic receptor was determined. Format: protein assay.

For orientation: EC50 means the concentration giving half of the maximal effect. Read a low EC50 as higher potency in that assay. In turn, `NCCCNCC(O)c1ccc(O)c(O)c1` (configuration not stated) registered an EC50 of 160 µM.
As for `CC(CCCCNC(=O)OCc1ccccc1)NCC(O)c1ccc(O)c(O)c1` (configuration not stated), the figure is 0.049 µM.
